{"source": "paper PMC5218480", "about": "(PLoS ONE, 2017)", "tested_on": "MV-4-11 cells", "experiment": "Gene expression microarray analysis (Affymetrix PrimeView) and GSEA", "format": "cell-based, human", "parameters": "RFU PODN (11730768_x_at) / Fold change /veh PODN (11730768_x_at) / RFU LINC00158 (11744669_a_at) / Fold change /veh LINC00158 (11744669_a_at) / RFU DUSP10 (11751237_a_at) / Fold change /veh DUSP10 (11751237_a_at) / RFU ID3 (11757404_x_at) / Fold change /veh ID3 (11757404_x_at) / RFU PLEKHG5 (11737974_s_at) / Fold change /veh PLEKHG5 (11737974_s_at) / RFU LRRC4B (11730491_at) / Fold change /veh LRRC4B (11730491_at) / RFU GIMAP4 (11747438_a_at) / Fold change /veh GIMAP4 (11747438_a_at) / RFU KRT8 (11758183_x_at) / Fold change /veh KRT8 (11758183_x_at) / RFU CNN1 (11734310_a_at) / Fold change /veh CNN1 (11734310_a_at) / RFU VPS37D (11726825_at) / Fold change /veh VPS37D (11726825_at) / RFU C10orf10 (11716522_x_at) / Fold change /veh C10orf10 (11716522_x_at) / RFU KIR2DL2 /// KIR2DL4 /// KIR2DL5A /// KIR2DL5B /// KIR2DS1 /// KIR2DS2 /// KIR2DS3 /// KIR2DS4 /// KIR3DL3 /// KIR3DL3 /// KIR3DS1 (11738374_at) / Fold change /veh KIR2DL2 /// KIR2DL4 /// KIR2DL5A /// KIR2DL5B /// KIR2DS1 /// KIR2DS2 /// KIR2DS3 /// KIR2DS4 /// KIR3DL3 /// KIR3DL3 /// KIR3DS1 (11738374_at) / RFU C1QL1 (11718748_at) / Fold change /veh C1QL1 (11718748_at) / RFU TMPRSS4 (11747572_a_at) / Fold change /veh TMPRSS4 (11747572_a_at) / RFU HAMP (11756126_x_at) / Fold change /veh HAMP (11756126_x_at) / RFU RNFT2 (11725882_a_at) / Fold change /veh RNFT2 (11725882_a_at) / RFU NR4A2 (11747474_a_at) / Fold change /veh NR4A2 (11747474_a_at) / RFU ABCC12 (11746883_a_at) / Fold change /veh ABCC12 (11746883_a_at) / RFU TMEM136 (11760407_x_at) / Fold change /veh TMEM136 (11760407_x_at) / RFU CLDN22 /// WWC2 (11732394_at) / Fold change /veh CLDN22 /// WWC2 (11732394_at) / RFU HLA-DPB1 (11760878_x_at) / Fold change /veh HLA-DPB1 (11760878_x_at) / RFU SPINT1 (11716480_a_at) / Fold change /veh SPINT1 (11716480_a_at) / RFU GAP43 (11754022_s_at) / Fold change /veh GAP43 (11754022_s_at) / RFU A4GNT (11735810_at) / Fold change /veh A4GNT (11735810_at) / RFU PRB3 (11715151_x_at) / Fold change /veh PRB3 (11715151_x_at) / RFU TUBB4B (11761932_at) / Fold change /veh TUBB4B (11761932_at) / RFU CAPN14 (11732068_a_at) / Fold change /veh CAPN14 (11732068_a_at) / RFU TMCC2 (11721928_a_at) / Fold change /veh TMCC2 (11721928_a_at) / RFU IRGQ (11745062_a_at) / Fold change /veh IRGQ (11745062_a_at) / RFU FAM174B (11720279_a_at) / Fold change /veh FAM174B (11720279_a_at) / RFU TMPRSS4 (11748680_a_at) / Fold change /veh TMPRSS4 (11748680_a_at) / RFU FAM212B (11763350_a_at) / Fold change /veh FAM212B (11763350_a_at) / RFU PLEKHG5 (11743358_a_at) / Fold change /veh PLEKHG5 (11743358_a_at) / RFU ZSCAN30 (11745921_a_at) / Fold change /veh ZSCAN30 (11745921_a_at) / RFU CMKLR1 (11741424_a_at) / Fold change /veh CMKLR1 (11741424_a_at) / RFU LOC101060620 /// MAPK8IP1 (11723275_at) / Fold change /veh LOC101060620 /// MAPK8IP1 (11723275_at) / RFU SPTSSB (11747773_x_at) / Fold change /veh SPTSSB (11747773_x_at) / RFU PRSS12 (11739890_at) / Fold change /veh PRSS12 (11739890_at) / RFU BIN1 (11741810_x_at) / Fold change /veh BIN1 (11741810_x_at) / RFU WNT11 (11732464_a_at) / Fold change /veh WNT11 (11732464_a_at) / RFU C10orf10 (11716521_a_at) / Fold change /veh C10orf10 (11716521_a_at) / RFU C5orf56 (11738089_at) / Fold change /veh C5orf56 (11738089_at) / RFU CYB561 (11721691_x_at) / Fold change /veh CYB561 (11721691_x_at) / RFU ANKRD19P (11752326_a_at) / Fold change /veh ANKRD19P (11752326_a_at) / RFU OR2T12 /// OR2T33 /// OR2T8 (11738714_s_at) / Fold change /veh OR2T12 /// OR2T33 /// OR2T8 (11738714_s_at) / RFU VCAN (11748164_a_at) / Fold change /veh VCAN (11748164_a_at) / RFU JSRP1 (11732532_at) / Fold change /veh JSRP1 (11732532_at) / RFU KRTAP10-11 (11738290_x_at) / Fold change /veh KRTAP10-11 (11738290_x_at) / RFU MYO3A (11730013_a_at) / Fold change /veh MYO3A (11730013_a_at) / RFU EBF3 (11725865_a_at) / Fold change /veh EBF3 (11725865_a_at) / RFU CAMK2N1 (11719241_x_at) / Fold change /veh CAMK2N1 (11719241_x_at) / RFU C5orf56 (11738088_a_at) / Fold change /veh C5orf56 (11738088_a_at) / RFU OLFML3 (11715873_a_at) / Fold change /veh OLFML3 (11715873_a_at) / RFU LOC100653217 /// NTM (11731650_a_at) / Fold change /veh LOC100653217 /// NTM (11731650_a_at) / RFU MAPK11 (11762145_a_at) / Fold change /veh MAPK11 (11762145_a_at) / RFU FIZ1 (11724087_x_at) / Fold change /veh FIZ1 (11724087_x_at) / RFU OASL (11726364_x_at) / Fold change /veh OASL (11726364_x_at) / RFU SOX15 (11748057_x_at) / Fold change /veh SOX15 (11748057_x_at) / RFU CD79A (11719716_a_at) / Fold change /veh CD79A (11719716_a_at) / RFU HIST1H1D (11736915_at) / Fold change /veh HIST1H1D (11736915_at) / RFU CASKIN2 (11723855_a_at) / Fold change /veh CASKIN2 (11723855_a_at) / RFU LOC730098 (11760151_x_at) / Fold change /veh LOC730098 (11760151_x_at) / RFU OR4N2 (11742367_at) / Fold change /veh OR4N2 (11742367_at) / RFU PRRT2 (11749266_a_at) / Fold change /veh PRRT2 (11749266_a_at) / RFU SNX32 (11753110_a_at) / Fold change /veh SNX32 (11753110_a_at) / RFU CDHR5 (11726645_a_at) / Fold change /veh CDHR5 (11726645_a_at) / RFU RCAN1 (11760418_a_at) / Fold change /veh RCAN1 (11760418_a_at) / RFU FAM167A (11723789_a_at) / Fold change /veh FAM167A (11723789_a_at) / RFU FAM26E (11764081_at) / Fold change /veh FAM26E (11764081_at) / RFU ISYNA1 (11749810_s_at) / Fold change /veh ISYNA1 (11749810_s_at) / RFU ACY1 (11761880_at) / Fold change /veh ACY1 (11761880_at) / RFU 11764098_at / Fold change /veh 11764098_at / RFU SAMD14 (11745864_x_at) / Fold change /veh SAMD14 (11745864_x_at) / RFU NPB (11741838_a_at) / Fold change /veh NPB (11741838_a_at) / RFU TMPRSS6 (11731388_a_at) / Fold change /veh TMPRSS6 (11731388_a_at) / RFU KRTAP10-2 (11738614_at) / Fold change /veh KRTAP10-2 (11738614_at) / RFU ARHGAP8 /// PRR5-ARHGAP8 (11727945_x_at) / Fold change /veh ARHGAP8 /// PRR5-ARHGAP8 (11727945_x_at) / RFU KRTAP5-7 /// NADSYN1 (11734609_at) / Fold change /veh KRTAP5-7 /// NADSYN1 (11734609_at) / RFU RASL12 (11751679_a_at) / Fold change /veh RASL12 (11751679_a_at) / RFU CDKN2B (11736163_a_at) / Fold change /veh CDKN2B (11736163_a_at) / RFU PRF1 (11729649_at) / Fold change /veh PRF1 (11729649_at) / RFU, ZNF638 /// ZNF638-IT1 / Fold change vs veh, ZNF638 /// ZNF638-IT1 / RFU, PANK3 / Fold change vs veh, PANK3 / RFU, SH3YL1 / Fold change vs veh, SH3YL1 / RFU, ZEB2 / Fold change vs veh, ZEB2 / RFU, NRIP1 / Fold change vs veh, NRIP1 / RFU, PTTG1IP / Fold change vs veh, PTTG1IP / RFU, CAPN2 / Fold change vs veh, CAPN2 / RFU, MED14 / Fold change vs veh, MED14 / RFU, SNORA58 / Fold change vs veh, SNORA58 / RFU, C1orf63 / Fold change vs veh, C1orf63 / RFU, LRRFIP1 / Fold change vs veh, LRRFIP1 / RFU, NDUFAF7 / Fold change vs veh, NDUFAF7 / RFU, SLC12A2 / Fold change vs veh, SLC12A2 / RFU, IBTK / Fold change vs veh, IBTK / RFU, ESF1 / Fold change vs veh, ESF1 / Fold change vs veh, TMEM50B / RFU, TAOK1 / Fold change vs veh, TAOK1 / RFU, ACBD3 / Fold change vs veh, ACBD3 / RFU, TMA16 / Fold change vs veh, TMA16 / RFU, RWDD3 / Fold change vs veh, RWDD3 / RFU, BCAT1 / Fold change vs veh, BCAT1 / RFU, EDEM3 / Fold change vs veh, EDEM3 / RFU, TMEM33 / Fold change vs veh, TMEM33 / RFU, WDR75 / Fold change vs veh, WDR75 / RFU, AHCTF1 / Fold change vs veh, AHCTF1 / RFU, TFRC / Fold change vs veh, TFRC / RFU, ZDHHC17 / Fold change vs veh, ZDHHC17 / RFU, NOM1 / Fold change vs veh, NOM1 / RFU, ARL8B / Fold change vs veh, ARL8B / RFU, ZBTB11 / Fold change vs veh, ZBTB11 / RFU, TAMM41 / Fold change vs veh, TAMM41 / RFU, KIAA1704 /// LOC100996395 / Fold change vs veh, KIAA1704 /// LOC100996395 / RFU, ING1 / Fold change vs veh, ING1 / RFU, TRMT61B / Fold change vs veh, TRMT61B / RFU, FUBP3 / Fold change vs veh, FUBP3 / RFU, TP53 / Fold change vs veh, TP53 / RFU, TNKS2 / Fold change vs veh, TNKS2 / RFU, ZFP14 / Fold change vs veh, ZFP14 / RFU, ACTR2 / Fold change vs veh, ACTR2 / RFU, PPP3R1 / Fold change vs veh, PPP3R1 / RFU, PIK3R1 / Fold change vs veh, PIK3R1 / RFU, HNRNPA1 / Fold change vs veh, HNRNPA1 / RFU, RNF170 / Fold change vs veh, RNF170 / RFU, ZNF28 / Fold change vs veh, ZNF28 / RFU, RNGTT / Fold change vs veh, RNGTT / RFU, OGT / Fold change vs veh, OGT / RFU, BRD1 / Fold change vs veh, BRD1 / RFU, MARS / Fold change vs veh, MARS / RFU, ZNF655 / Fold change vs veh, ZNF655 / RFU, FAHD1 / Fold change vs veh, FAHD1 / RFU, BDP1 / Fold change vs veh, BDP1 / RFU, LRRCC1 / Fold change vs veh, LRRCC1 / RFU, ARID1A / Fold change vs veh, ARID1A / RFU, ZNF146 / Fold change vs veh, ZNF146 / RFU, ZNF330 / Fold change vs veh, ZNF330 / RFU, GPN3 / Fold change vs veh, GPN3 / RFU, C9orf123 / Fold change vs veh, C9orf123 / RFU, N4BP2L2 / Fold change vs veh, N4BP2L2 / RFU, ARFIP1 / Fold change vs veh, ARFIP1 / RFU, FAM179B / Fold change vs veh, FAM179B / RFU, BCL10 / Fold change vs veh, BCL10 / RFU, UHRF1BP1L / Fold change vs veh, UHRF1BP1L / RFU, BET1 / Fold change vs veh, BET1 / RFU, CNOT2 / Fold change vs veh, CNOT2 / RFU, ZNF268 / Fold change vs veh, ZNF268 / Fold change vs veh, ZNF507 / RFU, DGCR2 / Fold change vs veh, DGCR2 / RFU, WDSUB1 / Fold change vs veh, WDSUB1 / Fold change vs veh, HSP90B1 /// MIR3652 / RFU, ADSS / Fold change vs veh, ADSS / RFU, GK / Fold change vs veh, GK / RFU, ZNF148 / Fold change vs veh, ZNF148 / RFU, TAF9 / Fold change vs veh, TAF9 / RFU, SLC1A5 / Fold change vs veh, SLC1A5 / RFU, SLMO2 / Fold change vs veh, SLMO2 / RFU, ABCC4 / Fold change vs veh, ABCC4 / RFU, LOC101060439 /// RAP1B / Fold change vs veh, LOC101060439 /// RAP1B / RFU, RFX7 / Fold change vs veh, RFX7 / RFU, GTPBP10 / Fold change vs veh, GTPBP10 / RFU, CNEP1R1 / Fold change vs veh, CNEP1R1 / RFU, BIVM-ERCC5 /// ERCC5 / Fold change vs veh, BIVM-ERCC5 /// ERCC5 / RFU, ILF3 / Fold change vs veh, ILF3 / RFU 11762660_at / Fold change /veh 11762660_at / RFU VCAN (11757783_s_at) / Fold change /veh VCAN (11757783_s_at) / RFU DDX43 (11728927_at) / Fold change /veh DDX43 (11728927_at) / RFU KRT8 (11758188_x_at) / Fold change /veh KRT8 (11758188_x_at) / RFU NKD1 (11759106_at) / Fold change /veh NKD1 (11759106_at) / RFU SRD5A1 (11742802_a_at) / Fold change /veh SRD5A1 (11742802_a_at) / RFU TPSAB1 /// TPSB2 (11721975_s_at) / Fold change /veh TPSAB1 /// TPSB2 (11721975_s_at) / RFU GSTM3 (11746129_a_at) / Fold change /veh GSTM3 (11746129_a_at) / RFU IL23R (11737362_x_at) / Fold change /veh IL23R (11737362_x_at) / RFU TMEM51 (11727254_a_at) / Fold change /veh TMEM51 (11727254_a_at) / RFU PIWIL2 (11732686_x_at) / Fold change /veh PIWIL2 (11732686_x_at) / RFU ORM1 (11744905_x_at) / Fold change /veh ORM1 (11744905_x_at) / RFU CCDC152 (11743942_at) / Fold change /veh CCDC152 (11743942_at) / RFU ECM1 (11717891_a_at) / Fold change /veh ECM1 (11717891_a_at) / RFU IL23R (11748794_a_at) / Fold change /veh IL23R (11748794_a_at) / RFU TNFAIP8L3 (11732012_x_at) / Fold change /veh TNFAIP8L3 (11732012_x_at) / RFU MBOAT4 (11741988_at) / Fold change /veh MBOAT4 (11741988_at) / RFU 11764193_at / Fold change /veh 11764193_at / RFU TMEM53 (11763286_at) / Fold change /veh TMEM53 (11763286_at) / RFU MAGEB2 (11727129_at) / Fold change /veh MAGEB2 (11727129_at) / RFU TMEM200A (11744735_a_at) / Fold change /veh TMEM200A (11744735_a_at) / RFU CCDC152 (11751479_a_at) / Fold change /veh CCDC152 (11751479_a_at) / RFU FAM211A (11726209_a_at) / Fold change /veh FAM211A (11726209_a_at) / RFU RGS16 (11746705_a_at) / Fold change /veh RGS16 (11746705_a_at) / RFU VCAN (11755009_s_at) / Fold change /veh VCAN (11755009_s_at) / RFU RHOB (11743442_s_at) / Fold change /veh RHOB (11743442_s_at) / RFU RGS16 (11720943_a_at) / Fold change /veh RGS16 (11720943_a_at) / RFU RGS16 (11720944_at) / Fold change /veh RGS16 (11720944_at) / RFU, VPS4B / Fold change vs veh, VPS4B / RFU, CREB1 / Fold change vs veh, CREB1 / RFU, DNAJC13 / Fold change vs veh, DNAJC13 / RFU, GNAQ / Fold change vs veh, GNAQ / RFU, CDK5R1 / Fold change vs veh, CDK5R1 / RFU, ZRANB3 / Fold change vs veh, ZRANB3 / RFU, CUL4A / Fold change vs veh, CUL4A / RFU, CCNY / Fold change vs veh, CCNY / RFU, UFL1 / Fold change vs veh, UFL1 / RFU, COG3 / Fold change vs veh, COG3 / RFU, DIAPH2 / Fold change vs veh, DIAPH2 / RFU, SKA2 / Fold change vs veh, SKA2 / RFU, AFF3 / Fold change vs veh, AFF3 / RFU, LMF1 / Fold change vs veh, LMF1 / RFU, IPO11 / Fold change vs veh, IPO11 / RFU, DFFB / Fold change vs veh, DFFB / RFU, FOXP1 / Fold change vs veh, FOXP1 / RFU, CARD8 / Fold change vs veh, CARD8 / RFU, STRN3 / Fold change vs veh, STRN3 / RFU, ADK / Fold change vs veh, ADK / RFU, RASSF2 / Fold change vs veh, RASSF2 / RFU, WIPF1 / Fold change vs veh, WIPF1 / RFU, LARP1B / Fold change vs veh, LARP1B / RFU, RASA1 / Fold change vs veh, RASA1 / RFU, RB1 / Fold change vs veh, RB1 / RFU, PPFIA1 / Fold change vs veh, PPFIA1 / RFU, MAT2A / Fold change vs veh, MAT2A / RFU, CCT5 / Fold change vs veh, CCT5 / RFU, WDR92 / Fold change vs veh, WDR92 / RFU, CUX1 / Fold change vs veh, CUX1 / RFU, TTC7A / Fold change vs veh, TTC7A / RFU, TMEM135 / Fold change vs veh, TMEM135 / RFU, DEPTOR / Fold change vs veh, DEPTOR / RFU, CPM / Fold change vs veh, CPM / RFU, DNAJB6 / Fold change vs veh, DNAJB6 / RFU, CACNA2D3 / Fold change vs veh, CACNA2D3 / RFU, DTX4 / Fold change vs veh, DTX4 / RFU, TFCP2 / Fold change vs veh, TFCP2 / RFU, GMCL1 /// GMCL1P1 / Fold change vs veh, GMCL1 /// GMCL1P1 / RFU, AEBP2 / Fold change vs veh, AEBP2 / RFU, SNHG1 /// SNORD22 /// SNORD25 /// SNORD26 /// SNORD27 /// SNORD28 /// SNORD29 /// SNORD31 / Fold change vs veh, SNHG1 /// SNORD22 /// SNORD25 /// SNORD26 /// SNORD27 /// SNORD28 /// SNORD29 /// SNORD31 / Fold change (Aza/veh), C12orf56 (ProbeSet 11735607_a_at) / Fold change (ACY-1035/veh), C12orf56 (ProbeSet 11735607_a_at) / Fold change (Aza/veh), FGFR1OP (ProbeSet 11751329_s_at) / Fold change (ACY-1035/veh), FGFR1OP (ProbeSet 11751329_s_at) / Fold change (Aza/veh), VPS36 (ProbeSet 11739960_a_at) / Fold change (ACY-1035/veh), VPS36 (ProbeSet 11739960_a_at) / RFU SYPL1 (11715823_x_at) / Fold change /veh SYPL1 (11715823_x_at) / RFU IGFBP7 (11715501_s_at) / Fold change /veh IGFBP7 (11715501_s_at) / RFU REEP3 (11722064_at) / Fold change /veh REEP3 (11722064_at) / RFU IGLL1 (11728026_x_at) / Fold change /veh IGLL1 (11728026_x_at): dose or concentration left out as unconfirmed", "settings": "ProbeSet 11755436_x_at; LIST B"}
{"molecule": "Nc1ncn([C@@H]2O[C@H](CO)[C@@H](O)[C@H]2O)c(=O)n1", "note": "[azacitidine]", "values": [{"measurement": "RFU, ARID1A", "result": 63.57, "unit": "RFU"}]}
